Test [1] addresses T1, Bile acid receptor (Homo sapiens, UniProt Q96RI1).
T1 sequence (Q96RI1 whole entry): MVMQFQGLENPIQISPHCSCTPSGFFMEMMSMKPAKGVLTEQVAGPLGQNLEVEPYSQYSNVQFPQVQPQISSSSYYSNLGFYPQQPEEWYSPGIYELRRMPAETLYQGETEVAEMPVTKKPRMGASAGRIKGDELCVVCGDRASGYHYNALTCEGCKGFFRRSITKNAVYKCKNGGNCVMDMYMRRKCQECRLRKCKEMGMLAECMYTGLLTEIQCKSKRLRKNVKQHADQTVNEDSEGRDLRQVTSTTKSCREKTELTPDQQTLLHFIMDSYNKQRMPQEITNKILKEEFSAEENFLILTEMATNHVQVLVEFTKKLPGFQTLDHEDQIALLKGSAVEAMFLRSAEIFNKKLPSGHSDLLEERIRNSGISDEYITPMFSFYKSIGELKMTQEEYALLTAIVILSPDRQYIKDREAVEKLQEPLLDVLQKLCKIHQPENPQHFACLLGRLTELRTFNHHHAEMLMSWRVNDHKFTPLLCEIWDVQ
The experiment in a line: Agonist activity at recombinant human GST-tagged FXR LBD (193 to 472 residues) expressed in baculovirus-infected insect cells assessed as recruitment of biotinylated SRC1 peptide measured after 1 hr by Alphascreen assay. On the technique in general: Alpha assays give light when donor and acceptor beads are brought close together.

The target in test [2] is T2, Bile acid receptor (Homo sapiens) (UniProt Q96RI1).
T2 sequence (whole entry): T1 sequence (Q96RI1 whole entry)
Put plainly: Agonist activity at recombinant human GST-tagged FXR LBD (193 to 472 residues) expressed in baculovirus-infected insect cells assessed as recruitment of biotinylated SRC1 peptide measured after 1 hr by Alphascreen assay relative to CDCA.

The species entered for test [3] is Homo sapiens. The experiment in a line: Selectivity ratio of EC50 for recombinant human GST-tagged FXR LBD (193 to 472 residues) expressed in baculovirus-infected insect cells to EC50 for human TGR5 expressed in HEK293 cells.
Test [4] deals with T1, Bile acid receptor. Put plainly: Agonist activity at FXR (unknown origin) measured after 16 hrs in presence of CCF4-AM dye by cell-based GeneBlazer FRET assay.
The target in test [5] is T2, Bile acid receptor (Homo sapiens). Put plainly: Agonist activity at FXR (unknown origin) measured after 16 hrs in presence of CCF4-AM dye by cell-based GeneBlazer FRET assay relative to CDCA.
Test [6] addresses T3, G-protein coupled bile acid receptor 1 (Homo sapiens, UniProt Q8TDU6).
T3 sequence (Q8TDU6 whole entry): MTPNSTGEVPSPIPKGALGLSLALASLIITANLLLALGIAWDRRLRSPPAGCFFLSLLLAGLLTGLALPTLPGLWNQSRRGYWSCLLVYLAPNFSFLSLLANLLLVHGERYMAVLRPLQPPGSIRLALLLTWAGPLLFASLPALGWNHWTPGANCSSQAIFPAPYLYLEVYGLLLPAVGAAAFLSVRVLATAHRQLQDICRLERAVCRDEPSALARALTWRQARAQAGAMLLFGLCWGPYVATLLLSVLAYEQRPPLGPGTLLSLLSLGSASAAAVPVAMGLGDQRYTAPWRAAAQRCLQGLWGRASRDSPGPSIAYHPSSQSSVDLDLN
The experiment in a line: Agonist activity at human TGR5 expressed in HEK293 cells assessed as increase in intracellular cAMP level after 1 hr by TR-FRET assay. It counts as functional, cell-based. (Cyclic AMP is a second messenger, typically raised through Gs and lowered through Gi signalling.)

The source of these data is ChEMBL document CHEMBL4138253, “Synthesis and Biological Evaluation of a Series of Bile Acid Derivatives as FXR Agonists for Treatment of NASH” (ACS Med Chem Lett, 2017).

In general, EC50 refers to the concentration that produces a half-maximal response.

Take `CC[C@H]1[C@@H](O)[C@@H]2[C@H](CC[C@]3(C)[C@@H]([C@H](C)CCC(=O)S)CC[C@@H]23)[C@@]2(C)CC[C@@H](O)C[C@@H]12`: the EC50 in test [1] came out at 240 nM. For the same compound, the Efficacy in test [2] came to 226%.

For the compound `CC[C@H]1[C@@H](O)[C@@H]2[C@H](CC[C@]3(C)[C@@H]([C@H](C)CCNC(=O)OCc4ccccc4)CC[C@@H]23)[C@@]2(C)CC[C@@H](O)C[C@@H]12`, the EC50 in test [1] came to 300 nM. For the same compound, the Efficacy in test [2] turned out to be 130%.

For `CC[C@H]1[C@@H](O)[C@@H]2[C@H](CC[C@]3(C)[C@@H]([C@H](C)CCCNC(=O)N4CC[C@H](O)C4)CC[C@@H]23)[C@@]2(C)CC[C@@H](O)C[C@@H]12`, the EC50 in test [1] is 370 nM. The Efficacy in test [2] came out at 129%.

For `CC[C@H]1[C@@H](O)[C@@H]2[C@H](CC[C@]3(C)[C@@H]([C@H](C)CCc4nn[nH]n4)CC[C@@H]23)[C@@]2(C)CC[C@@H](O)C[C@@H]12`, the Efficacy in test [2] came to 153%. Further, in test [3], the Ratio EC50 was determined as 30.

Regarding `CC[C@H]1[C@@H](O)[C@@H]2[C@H](CC[C@]3(C)[C@@H]([C@H](C)CCC(=O)O)CC[C@@H]23)[C@@]2(C)CC[C@@H](OC)C[C@@H]12`, the EC50 in test [1] was 1800 nM. Also, in test [2], the Efficacy came to 108%.

With `CC[C@H]1[C@@H](O)[C@@H]2[C@H](CC[C@]3(C)[C@@H]([C@H](C)CCC(C)=O)CC[C@@H]23)[C@@]2(C)CC[C@@H](O)C[C@@H]12`, the EC50 in test [1] was determined as 1000 nM. Also, the Efficacy in test [2] came to 263%.

Turning to `CC[C@H]1[C@@H](O)[C@@H]2[C@H](CC[C@]3(C)[C@@H]([C@H](C)CCNC(=O)O[C@@H]4CCOC4)CC[C@@H]23)[C@@]2(C)CC[C@@H](O)C[C@@H]12`, the EC50 was 120 nM in test [1] and 80 nM in test [4]. Further, the values for the Efficacy in test [2] and in test [5] were 100% and 170%, respectively.

Turning to `CC[C@H]1[C@@H](O)[C@@H]2[C@H](CC[C@]3(C)[C@@H]([C@H](C)CCNS(=O)(=O)c4ccccc4)CC[C@@H]23)[C@@]2(C)CC[C@@H](O)C[C@@H]12`, in test [1], the EC50 amounted to 470 nM. Also, the Efficacy in test [2] worked out at 117%.

For the compound `CC[C@H]1[C@@H](O)[C@@H]2[C@H](CC[C@]3(C)[C@@H]([C@H](C)CCNC(=O)OC)CC[C@@H]23)[C@@]2(C)CC[C@@H](O)C[C@@H]12`, the EC50 in test [1] was 300 nM. For the same compound, in test [2], the Efficacy came out at 149%.

As for `CC[C@H]1[C@@H](O)[C@@H]2[C@H](CC[C@]3(C)[C@@H]([C@H](C)CCC(=O)O)CC[C@@H]23)[C@@]2(C)Cc3cn[nH]c3C[C@@H]12`, the EC50 in test [1] was 300 nM. For the same compound, the Efficacy in test [2] worked out at 136%.

With `CC[C@H]1[C@@H](O)[C@@H]2[C@H](CC[C@]3(C)[C@@H]([C@H](C)CCNC(=O)c4ccccn4)CC[C@@H]23)[C@@]2(C)CC[C@@H](O)C[C@@H]12`, the EC50 in test [1] was 30 nM. Also, in test [2], the Efficacy worked out at 88%.

For the compound `CC[C@H]1[C@@H](O)[C@@H]2[C@H](CC[C@]3(C)[C@@H]([C@H](C)CCNC(=O)OCc4cccs4)CC[C@@H]23)[C@@]2(C)CC[C@@H](O)C[C@@H]12`, the EC50 in test [1] amounted to 230 nM; in test [4] it was 110 nM. Further, the Efficacy in test [2] came out at 142%; in test [5], 168%.

As for `CC[C@H]1[C@@H](O)[C@@H]2[C@H](CC[C@]3(C)[C@@H]([C@H](C)CCNC(C)=O)CC[C@@H]23)[C@@]2(C)CC[C@@H](O)C[C@@H]12`, the EC50 in test [1] is 150 nM. For the same compound, the Efficacy in test [2] worked out at 81%.

Regarding `CC[C@H]1[C@@H](O)[C@@H]2[C@H](CC[C@]3(C)[C@@H]([C@H](C)CCNS(=O)(=O)C4CC4)CC[C@@H]23)[C@@]2(C)CC[C@@H](O)C[C@@H]12`, the 50% effective concentration (EC50) in test [1] turned out to be 230 nM. The Efficacy in test [2] was found to be 87%.

Consider `CC[C@H]1[C@@H](O)[C@@H]2[C@H](CC[C@]3(C)[C@@H]([C@H](C)CCNC(N)=O)CC[C@@H]23)[C@@]2(C)CC[C@@H](O)C[C@@H]12`, for which, in test [1], the EC50 stood at 230 nM. For the same compound, in test [2], the Efficacy stood at 104%.

On to `CC[C@H]1[C@@H](O)[C@@H]2[C@H](CC[C@]3(C)[C@@H]([C@H](C)CCCNS(=O)(=O)c4ccccc4)CC[C@@H]23)[C@@]2(C)CC[C@@H](O)C[C@@H]12`, for which the EC50 in test [1] came to 230 nM. The Efficacy in test [2] came to 79%.

In the case of `CC[C@H]1[C@@H](O)[C@@H]2[C@H](CC[C@]3(C)[C@@H]([C@H](C)CCC(=O)O)CC[C@@H]23)[C@@]2(C)CCC(F)(F)C[C@@H]12`, the EC50 in test [1] came out at 1100 nM. Moreover, the Efficacy in test [2] was determined as 109%.

Turning to `CC[C@H]1[C@@H](O)[C@@H]2[C@H](CC[C@]3(C)[C@@H]([C@H](C)CCC(N)=O)CC[C@@H]23)[C@@]2(C)CC[C@@H](O)C[C@@H]12`, in test [1], the EC50 stood at 600 nM. Moreover, in test [2], the Efficacy stood at 142%.

Regarding `CC[C@H]1[C@@H](O)[C@@H]2[C@H](CC[C@]3(C)[C@@H]([C@H](C)CCNC(=O)NC4CC4)CC[C@@H]23)[C@@]2(C)CC[C@@H](O)C[C@@H]12`, the values for the EC50 in test [1] and in test [6] were 70 nM and 420 nM, respectively. Also, the Efficacy in test [2] came out at 104%. In addition, the Ratio EC50 in test [3] is 6.

For `CC[C@H]1[C@@H](O)[C@@H]2[C@H](CC[C@]3(C)[C@@H]([C@H](C)CCC(=O)O)CC[C@@H]23)[C@@]2(C)CCCC[C@@H]12`, the EC50 in test [1] was 400 nM. Besides, the Efficacy in test [2] was determined as 126%.

For the compound `CC[C@H]1[C@@H](O)[C@@H]2[C@H](CC[C@]3(C)[C@@H]([C@H](C)CCC(=O)NCC(=O)O)CC[C@@H]23)[C@@]2(C)CC[C@@H](O)C[C@@H]12`, in test [1], the EC50 was 290 nM. For the same compound, the Efficacy in test [2] stood at 135%.

In the case of `CC[C@H]1[C@@H](O)[C@@H]2[C@H](CC[C@]3(C)[C@@H]([C@H](C)CCNC(=O)N4CC[C@H](O)C4)CC[C@@H]23)[C@@]2(C)CC[C@@H](O)C[C@@H]12`, the EC50 is 80 nM in test [1] and 160 nM in test [6]. Further, the Efficacy in test [2] worked out at 115%. The Ratio EC50 in test [3] was determined as 2.

Regarding `CC[C@H]1[C@@H](O)[C@@H]2[C@H](CC[C@]3(C)[C@@H]([C@H](C)CCNC(=O)OC(C)C)CC[C@@H]23)[C@@]2(C)CC[C@@H](O)C[C@@H]12`, the EC50 in test [1] was 300 nM. In addition, the Efficacy in test [2] came to 162%.

Take `CC[C@H]1[C@@H](O)[C@@H]2[C@H](CC[C@]3(C)[C@@H]([C@H](C)CCCNS(C)(=O)=O)CC[C@@H]23)[C@@]2(C)CC[C@@H](O)C[C@@H]12`: in test [1], the EC50 came to 110 nM. The Efficacy in test [2] was found to be 85%.

For the compound `CC[C@H]1[C@@H](O)[C@@H]2[C@H](CC[C@]3(C)[C@@H]([C@H](C)CCC(=O)O)CC[C@@H]23)[C@@]2(C)CCC(C)C[C@@H]12` (stereo not given in full), the EC50 in test [1] came out at 1500 nM. Moreover, the Efficacy in test [2] is 49%.

Turning to `CC[C@H]1[C@@H](O)[C@@H]2[C@H](CC[C@]3(C)[C@@H]([C@H](C)CCNC(=O)OC4CCCCC4)CC[C@@H]23)[C@@]2(C)CC[C@@H](O)C[C@@H]12`, the EC50 in test [1] came out at 300 nM. For the same compound, the Efficacy in test [2] amounted to 140%.

On to `CC[C@H]1[C@@H](O)[C@@H]2[C@H](CC[C@]3(C)[C@@H]([C@H](C)CCNC(=O)OC4CCC4)CC[C@@H]23)[C@@]2(C)CC[C@@H](O)C[C@@H]12`, for which the EC50 in test [1] stood at 150 nM. Also, in test [2], the Efficacy was 100%.

Regarding `CC[C@H]1[C@@H](O)[C@@H]2[C@H](CC[C@]3(C)[C@@H]([C@H](C)CCNS(C)(=O)=O)CC[C@@H]23)[C@@]2(C)CC[C@@H](O)C[C@@H]12`, the EC50 in test [1] came out at 280 nM. For the same compound, the Efficacy in test [2] came out at 128%.

Consider `CC[C@H]1[C@@H](O)[C@@H]2[C@H](CC[C@]3(C)[C@@H]([C@H](C)CCCNC(N)=O)CC[C@@H]23)[C@@]2(C)CC[C@@H](O)C[C@@H]12`, for which, in test [1], the EC50 is 130 nM. Besides, the Efficacy in test [2] is 95%.

Regarding `CC[C@H]1[C@@H](O)[C@@H]2[C@H](CC[C@]3(C)[C@@H]([C@H](C)CCC(=O)O)CC[C@@H]23)[C@@]2(C)CCC3(CC3)C[C@@H]12`, the EC50 in test [1] came out at 700 nM. In addition, the Efficacy in test [2] was found to be 68%.

On to `CC[C@H]1[C@@H](O)[C@@H]2[C@H](CC[C@]3(C)[C@@H]([C@H](C)CCC4NC(=O)NC4=O)CC[C@@H]23)[C@@]2(C)CC[C@@H](O)C[C@@H]12` (stereo not given in full), for which, in test [1], the EC50 came out at 2700 nM. Moreover, the Efficacy in test [2] is 202%.
